Measurements from patent US9469631B2 (Boehringer Ingelheim International GmbH, priority 2012, dated 2016).

Biological target: human GPR119 (Homo sapiens (Human), UniProt Q8TDV5)
Assay: AlphaScreen cAMP assay in MIN6 cells stably transfected with human GPR119
Format: cell-based
Conditions: Min-6/hGPR119 cells, 45 min incubation at room temperature
Experimental: The compounds of formula I according to the invention modulate the activity of the G-protein-coupled receptor GPR119. The effect of the compounds on the activation of GPR119 and on the stimulation of intracellular cAMP concentration is determined using the AlphaScreen cAMP Assay Kit (Cat. No. #6760625R) made by PerkinElmer.
MIN6 cells [Miyazaki J et al. Endocrinology. 1990 July; 127(1):126-32] are stably transfected with an expression vector for human GPR119 cDNA (Acc. No. NP_848566). Min-6/hGPR119 cells are cultured in DMEM, 10% FBS, 50 μM β-mercaptoethanol, 0.3 mg/mL Geniticin, 2 mM GlutaMAX at 37° C. 5% CO2. For the assay, the cells are seeded in Optiplates (white, 384-well, 160W-barcoded, TC, sterile with lid, Cat. No. #6007688 (Perkin Elmer); 10000 cells/well; 50 μl). The plates covered with lids are then incubated for 24 hours at 37° C./5% CO2. After the medium is aspirated from the wells completely, 10 μl of the test compound are added, the compounds are diluted using stimulating buffer (140 mM NaCl, 3.6 mM KCl, 0.5 mM NaH2PO4, 0.5 mM MgSO4, 1.5 mM CaCl2, 10 mM Hepes, 5 mM NaHCO3; pH 7.4. 0.5 mM IBMX and 0.1% BSA, the final DMSO concentration is 1%). After 45 minutes incubation at room temperature (approx. 20° C.), the cAMP concentrations are determined using the AlphaScreen cAMP Assay Kit (Cat. No. #6760625R from PerkinElmer).

Sequence of human GPR119 (Q8TDV5 whole entry): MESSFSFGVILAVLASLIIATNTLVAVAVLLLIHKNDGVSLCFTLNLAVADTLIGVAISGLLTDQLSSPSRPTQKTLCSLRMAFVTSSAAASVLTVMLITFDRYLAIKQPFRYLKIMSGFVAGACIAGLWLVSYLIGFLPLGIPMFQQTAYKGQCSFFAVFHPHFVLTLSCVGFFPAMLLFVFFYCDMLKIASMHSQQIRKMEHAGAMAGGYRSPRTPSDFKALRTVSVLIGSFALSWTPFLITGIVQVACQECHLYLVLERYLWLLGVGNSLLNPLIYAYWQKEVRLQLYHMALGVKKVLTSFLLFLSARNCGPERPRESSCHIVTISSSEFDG

| SMILES | EC50 [nM] |
| --- | --- |
| CC1CC(N(C(=O)c2ccc(-c3cnco3)cc2)C2CC2)CCN1C(=O)OC(C)(C)C (stereo not shown) [Example 1, 4-[Cyclopropyl-(4-oxazol-5-yl-benzoyl)-amino]-2-methyl-piperidine-1-carboxylic acid tert-butyl ester] | 157 |
| CC1CN(C(=O)OC(C)(C)C)CCC1N(C(=O)c1ccc(-c2cnco2)cc1)C1CC1 (stereo not shown) [Example 2, 4-[Cyclopropyl-(4-oxazol-5-yl-benzoyl)-amino]-3-methyl-piperidine-1-carboxylic acid tert-butyl ester] | 15 |
| C=C(C)OC(=O)N1CCC(N(C(=O)c2ccc(-c3cnco3)cc2)C2CC2)CC1 [Example 3, 4-[Cyclopropyl-(4-oxazol-5-yl-benzoyl)-amino]-piperidine-1-carboxylic acid isopropenyl ester] | 124 |
| CC(C)(C)OC(=O)N1CCC(N(C(=O)c2ccc(-c3ocnc3I)cc2)C2CC2)CC1 [Example 4, 4-{Cyclopropyl-[4-(4-iodo-oxazol-5-yl)-benzoyl]-amino}-piperidine-1-carboxylic acid tert-butyl ester] | 816 |
| Cc1nc(-c2ccc(C(=O)N(C3CC3)C3CCN(C(=O)OC(C)(C)C)CC3)cc2)co1 [Example 5, 4-{Cyclopropyl-[4-(2-methyl-oxazol-4-yl)-benzoyl]-amino}-piperidine-1-carboxylic acid tert-butyl ester] | 884 |
| CC(C)(C)OC(=O)N1CCC(N(C(=O)c2ccc(-c3cncs3)cc2)C2CC2)CC1 [Example 6, 4-[Cyclopropyl-(4-thiazol-5-yl-benzoyl)-amino]-piperidine-1-carboxylic acid tert-butyl ester] | 32 |
| CC(C)(C)OC(=O)N1CCC(N(C(=O)c2ccc(-c3cnco3)c([N+](=O)[O-])c2)C2CC2)CC1 [Example 7, 4-[Cyclopropyl-(3-nitro-4-oxazol-5-yl-benzoyl)-amino]-piperidine-1-carboxylic acid tert-butyl ester] | 78 |
| CC(C)(C)OC(=O)N1CCC(N(C(=O)c2ccc(-c3cnco3)c(N)c2)C2CC2)CC1 [Example 8, 4-[(3-Amino-4-oxazol-5-yl-benzoyl)-cyclopropyl-amino]-piperidine-1-carboxylic acid tert-butyl ester] | 169 |
| COc1cc(C(=O)N(C2CC2)C2CCN(C(=O)OC(C)(C)C)CC2)ccc1-c1cnco1 [Example 9, 4-[Cyclopropyl-(3-methoxy-4-oxazol-5-yl-benzoyl)-amino]-piperidine-1-carboxylic acid tert-butyl ester] | 650 |
| Cc1ncoc1-c1ccc(C(=O)N(C2CC2)C2CCN(C(=O)OC(C)(C)C)CC2)cc1 [Example 10, 4-{Cyclopropyl-[4-(4-methyl-oxazol-5-yl)-benzoyl]-amino}-piperidine-1-carboxylic acid tert-butyl ester] | 75 |
| O=C(OC1CCOCC1)N1CCC(N(C(=O)c2ccc(-c3cnco3)cc2)C2CC2)CC1 [Example 11, 4-[Cyclopropyl-(4-oxazol-5-yl-benzoyl)-amino]-piperidine-1-carboxylic acid tetrahydro-pyran-4-yl ester] | 516 |
| CC(C)(C)OC(=O)N1CCC(N(C(=O)c2ccc(-c3cn[nH]c3)cc2)C2CC2)CC1 [Example 12, 4-{Cyclopropyl-[4-(1H-pyrazol-4-yl)-benzoyl]-amino}-piperidine-1-carboxylic acid tert-butyl ester] | 240 |
| Cn1cc(-c2ccc(C(=O)N(C3CC3)C3CCN(C(=O)OC(C)(C)C)CC3)cc2)cn1 [Example 13] | 423 |
| O=C(OCC1CCOCC1)N1CCC(N(C(=O)c2ccc(-c3cnco3)cc2)C2CC2)CC1 [Example 14, 4-[Cyclopropyl-(4-oxazol-5-yl-benzoyl)-amino]-piperidine-1-carboxylic acid tetrahydro-pyran-4-ylmethyl ester] | 1080 |
| CC(C)(O)COC(=O)N1CCC(N(C(=O)c2ccc(-c3cnco3)cc2)C2CC2)CC1 [Example 15, 4-[Cyclopropyl-(4-oxazol-5-yl-benzoyl)-amino]-piperidine-1-carboxylic acid 2-hydroxy-2-methyl-propyl ester] | 4460 |
| Cc1ccc(-c2ccc(C(=O)N(C3CC3)C3CCN(C(=O)OC(C)(C)C)CC3)cc2)nn1 [Example 16, 4-{Cyclopropyl-[4-(6-methyl-pyridazin-3-yl)-benzoyl]-amino}-piperidine-1-carboxylic acid tert-butyl ester] | 76 |
| Cn1cnc(-c2ccc(C(=O)N(C3CC3)C3CCN(C(=O)OC(C)(C)C)CC3)cc2)n1 [Example 17, 4-{Cyclopropyl-[4-(1-methyl-1H-[1,2,4]triazol-3-yl)-benzoyl]-amino}-piperidine-1-carboxylic acid tert-butyl ester] | 2220 |
| Cn1ncnc1-c1ccc(C(=O)N(C2CC2)C2CCN(C(=O)OC(C)(C)C)CC2)cc1 [Example 18, 4-{Cyclopropyl-[4-(2-methyl-2H-[1,2,4]triazol-3-yl)-benzoyl]-amino}-piperidine-1-carboxylic acid tert-butyl ester] | 1000 |

The next lines start with the values.

| EC50 [nM] | SMILES |
| --- | --- |
| 174 | CC(C)(C)OC(=O)N1CC[C@H](N(C(=O)c2ccc(-c3cnco3)cc2)C2CC2)[C@@H](F)C1 (single isomer, unassigned) [Example 38] |
| 634 | CC(C)(C)OC(=O)N1CC[C@@H](N(C(=O)c2ccc(-c3cnco3)cc2)C2CC2)[C@H](F)C1 (single isomer, unassigned) [Example 39] |
| 2 | CC(C)(C)OC(=O)N1CC[C@H](N(C(=O)c2ccc(-c3cnco3)cc2)C2CC2)[C@H](F)C1 (single isomer, unassigned) [Example 40] |
| 30 | CC(C)(C)OC(=O)N1CC[C@@H](N(C(=O)c2ccc(-c3cnco3)cc2)C2CC2)[C@@H](F)C1 (single isomer, unassigned) [Example 41] |
| 7 | C[C@@H]1CN(C(=O)OC(C)(C)C)CC[C@@H]1N(C(=O)c1ccc(-c2cnco2)cc1)C1CC1 (single isomer, unassigned) [Example 46] |
| 855 | C[C@H]1CN(C(=O)OC(C)(C)C)CC[C@H]1N(C(=O)c1ccc(-c2cnco2)cc1)C1CC1 (single isomer, unassigned) [Example 47] |
| 1770 | CC1(OC(=O)N2CCC(N(C(=O)c3ccc(-c4ccc(S(C)(=O)=O)cn4)cc3)C3CC3)CC2)CC1 [Example 19, 4-{Cyclopropyl-[4-(5-methanesulfonyl-pyridin-2-yl)-benzoyl]-amino}-piperidine-1-carboxylic acid 1-methyl-cyclopropyl ester] |
| 52 | CC1(OC(=O)N2CCC(N(C(=O)c3ccc(-c4cnco4)cc3)C3CC3)CC2)CC1 [Example 20, 4-[Cyclopropyl-(4-oxazol-5-yl-benzoyl)-amino]-piperidine-1-carboxylic acid 1-methyl-cyclopropyl ester] |
| 74 | CC(C)(C)OC(=O)N1CCC(N(C(=O)c2ccc(-c3ccc(S(C)(=O)=O)cn3)cc2)C2CC2)CC1 [Example 21, 4-{Cyclopropyl-[4-(5-methanesulfonyl-pyridin-2-yl)-benzoyl]-amino}-piperidine-1-carboxylic acid tert-butyl ester] |
| 137 | CC(C)(C)OC(=O)N1CCC(N(C(=O)c2ccc(-n3cnnn3)cc2)C2CC2)CC1 [Example 22, 4-[Cyclopropyl-(4-tetrazol-1-yl-benzoyl)-amino]-piperidine-1-carboxylic acid tert-butyl ester] |
| 236 | CC(C)(C)OC(=O)N1CCC(N(C(=O)c2ccc(-c3ccnnc3)cc2)C2CC2)CC1 [Example 23, 4-[Cyclopropyl-(4-pyridazin-4-yl-benzoyl)-amino]-piperidine-1-carboxylic acid tert-butyl ester] |
| 81 | Cc1cc(C(=O)N(C2CC2)C2CCN(C(=O)OC(C)(C)C)CC2)ccc1-c1cnco1 [Example 24, 4-[Cyclopropyl-(3-methyl-4-oxazol-5-yl-benzoyl)-amino]-piperidine-1-carboxylic acid tert-butyl ester] |
| 238 | CC(C)(C)OC(=O)N1CCC(N(C(=O)c2ccc(-c3ncon3)cc2)C2CC2)CC1 [Example 25, 4-[Cyclopropyl-(4-[1,2,4]oxadiazol-3-yl-benzoyl)-amino]-piperidine-1-carboxylic acid tert-butyl ester] |
| 224 | Cc1nnnn1-c1ccc(C(=O)N(C2CC2)C2CCN(C(=O)OC(C)(C)C)CC2)cc1 [Example 26, 4-{Cyclopropyl-[4-(5-methyl-tetrazol-1-yl)-benzoyl]-amino}-piperidine-1-carboxylic acid tert-butyl ester] |
| 469 | Cc1cncnc1-c1ccc(C(=O)N(C2CC2)C2CCN(C(=O)OC(C)(C)C)CC2)cc1 [Example 27, 4-{Cyclopropyl-[4-(5-methyl-pyrimidin-4-yl)-benzoyl]-amino}-piperidine-1-carboxylic acid tert-butyl ester] |
| 8 | CC(C)(C)OC(=O)N1CCC(N(C(=O)c2ccc(-c3cnco3)c(F)c2)C2CC2)CC1 [Example 28, 4-[Cyclopropyl-(3-fluoro-4-oxazol-5-yl-benzoyl)-amino]-piperidine-1-carboxylic acid tert-butyl ester] |
